What was measured:
Assay in all cases: Ba/F3 drug screening, Cell Titer Glo, IC50 Mut/WT
Format in all cases: cell-based
EGFR S768dupSVD V769M = target: T1, EGFR S768dupSVD V769M (Homo sapiens, UniProt P00533, INS768MDS/V769M); settings: Ex20, 72 hours
T1 construct: expressed in transfected cells; host or cells: Ba/F3 cells, retroviral pBabe-Puro vector (vector made by GeneScript from EGFR S768dupSVD, c.2305G > A)

EGFR K754E = target: T2, EGFR K754E (Homo sapiens, UniProt P00533, K754E); settings: Classical-Like, 72 hours
T2 construct: expressed in transfected cells; host or cells: Ba/F3 cells, retroviral pBabe-Puro vector

EGFR Ex19del/C797S = target: T3, EGFR Ex19del/C797S (Homo sapiens, UniProt P00533, C797S/DEL746-750); settings: Ba/F3 cells, EGFR Ex19del/C797S (PACC), Mut/WT
T3 construct: expressed in transfected cells; host or cells: Ba/F3

EGFR S768I/V769L = target: T4, EGFR S768I/V769L (Homo sapiens, UniProt P00533, S768I/V769L); settings: Ba/F3 cells, EGFR S768I/V769L (PACC), Mut/WT
T4 construct: host or cells: Ba/F3
Experimental: (§1) Data represent the ratio of the IC50 value for a given TKI for cells with a PACC EGFR mutation to the IC50 value for cells with wildtype EGFR.
(§2) Ba/F3 cell generation, drug screening, and IC50 approximations. Ba/F3 cells were obtained as a gift from Dr. Gordon Mills (MD Anderson Cancer Center), and maintained in RPMI (Sigma) containing 10% FBS, 1% penicillin/streptomycin, and 10 ng/ml recombinant mIL-3 (R&D Biosystems). To establish stable Ba/F3 cell lines, Ba/F3 cells were transduced with retroviruses containing mutant EGFR plasmids for 12-24 hours.
(§3) After 48-72 hours of transduction, 2 μg/ml puromycin (Invitrogen) was added to Ba/F3 cell lines in complete RPMI. To select for EGFR positive cell lines, cells were stained with PE-EGFR (Biolegend) and sorted by FACS. After sorting, EGFR positive cells were maintained in RPMI containing 10% FBS, 1% penicillin/streptomycin, and 1 ng/ml EGF to support cell viability. Drug screening was performed as previously described^41,42. Shortly, cells were plated in 384-well plates (Greiner Bio-One) at 2000-3000 cells per well in technical triplicate. Seven different concentrations of TKIs or DMSO vehicle were added to reach a final volume of 40 μL per well. After 72 hours, 11 μL of Cell Titer Glo (Promega) was added to each well. Plates were incubated for a minimum of 10 minutes, and bioluminescence was determined using a FLUOstar OPTIMA plate reader (BMG LABTECH). Raw bioluminescence values were normalized to DMSO control treated cells, and values were plotted in GraphPad Prism. […] Drug screens were performed in technical triplicate on each plate and either duplicate or triplicate biological replicates.

EGFR V769L = target: T5, EGFR V769L (Homo sapiens, UniProt P00533, V769L); settings: Ba/F3 cells, EGFR V769L (PACC), Mut/WT
T5 construct: expressed in transfected cells; host or cells: Ba/F3
Experimental: as §1, §2, §3

EGFR L858R/T790M/C797S = target: T6, EGFR L858R/T790M/C797S (Homo sapiens, UniProt P00533, C797S/L858R/T790M); settings: T790M-like-3R, 72 hours
T6 construct: expressed in transfected cells; host or cells: Ba/F3

EGFR L833V = target: T7, EGFR L833V (Homo sapiens, UniProt P00533, L833V); settings: Classical-Like, 72 hours
T7 construct: expressed in transfected cells; host or cells: Ba/F3 cells, retroviral pBabe-Puro vector
Experimental: (§4) Data represent the ratio of the IC50 value for a given TKI for cells with a classical-like EGFR mutation to the IC50 value for cells with wildtype EGFR.
as §2
(§5) After 48-72 hours of transduction, 2 μg/ml puromycin (Invitrogen) was added to Ba/F3 cell lines in complete RPMI. To select for EGFR positive cell lines, cells were stained with PE-EGFR (Biolegend) and sorted by FACS. After sorting, EGFR positive cells were maintained in RPMI containing 10% FBS, 1% penicillin/streptomycin, and 1 ng/ml EGF to support cell viability. […] Shortly, cells were plated in 384-well plates (Greiner Bio-One) at 2000-3000 cells per well in technical triplicate. Seven different concentrations of TKIs or DMSO vehicle were added to reach a final volume of 40 μL per well. After 72 hours, 11 μL of Cell Titer Glo (Promega) was added to each well. Plates were incubated for a minimum of 10 minutes, and bioluminescence was determined using a FLUOstar OPTIMA plate reader (BMG LABTECH). Raw bioluminescence values were normalized to DMSO control treated cells, and values were plotted in GraphPad Prism. […] Drug screens were performed in technical triplicate on each plate and either duplicate or triplicate biological replicates.

EGFR E709K L858R = target: T8, EGFR E709K L858R (Homo sapiens, UniProt P00533, E709K/L858R); settings: Classical-Like, 72 hours
T8 construct: expressed in transfected cells; host or cells: Ba/F3 cells, retroviral pBabe-Puro vector

EGFR L718Q T790M = target: T9, EGFR L718Q T790M (Homo sapiens, UniProt P00533, L718Q/T790M); settings: T790M-like-3R, 72 hours
T9 construct: expressed in transfected cells; host or cells: Ba/F3

EGFR L861R = target: T10, EGFR L861R (Homo sapiens, UniProt P00533, L861R); settings: Classical-Like, 72 hours
T10 construct: expressed in transfected cells; host or cells: Ba/F3 cells, retroviral pBabe-Puro vector (vector made by GeneScript from EGFR WT)
Experimental: as §4, §2, §5

EGFR I740dupIPVAK = settings: Ba/F3 cells, EGFR I740dupIPVAK (PACC), Mut/WT
Experimental: as §1, §2, §3

EGFR S768I/T790M = target: T11, EGFR S768I/T790M (Homo sapiens, UniProt P00533, S768I/T790M); settings: T790M-like-3S, 72 hours
T11 construct: expressed in transfected cells; host or cells: Ba/F3
Experimental: (§6) Data represent the ratio of the IC50 value for a given TKI for cells with a T790M-like-3S EGFR mutation to the IC50 value for cells with wildtype EGFR.
as §2, §3

EGFR L861Q = target: T12, EGFR L861Q (Homo sapiens, UniProt P00533, L861Q); settings: Classical-Like, 72 hours
T12 construct: expressed in transfected cells; host or cells: Ba/F3 cells, retroviral pBabe-Puro vector

EGFR L858R T790M L718V = target: T13, EGFR L858R T790M L718V (Homo sapiens, UniProt P00533, L718V/L858R/T790M); settings: T790M-like-3R, 72 hours
T13 construct: expressed in transfected cells; host or cells: Ba/F3

EGFR G724S = target: T14, EGFR G724S (Homo sapiens, UniProt P00533, G724S); settings: Ba/F3 cells, EGFR G724S (PACC), Mut/WT
T14 construct: expressed in transfected cells; host or cells: Ba/F3

EGFR L747P = target: T15, EGFR L747P (Homo sapiens, UniProt P00533, L747P); settings: Ba/F3 cells, EGFR L747P (PACC), Mut/WT
T15 construct: expressed in transfected cells; host or cells: Ba/F3
Experimental: as §1, §2
(§7) After 48-72 hours of transduction, 2 μg/ml puromycin (Invitrogen) was added to Ba/F3 cell lines in complete RPMI. To select for EGFR positive cell lines, cells were stained with PE-EGFR (Biolegend) and sorted by FACS. After sorting, EGFR positive cells were maintained in RPMI containing 10% FBS, 1% penicillin/streptomycin, and 1 ng/ml EGF to support cell viability. Drug screening was performed as previously described^41,42. Shortly, cells were plated in 384-well plates (Greiner Bio-One) at 2000-3000 cells per well in technical triplicate. Seven different concentrations of TKIs or DMSO vehicle were added to reach a final volume of 40 μL per well. After 72 hours, 11 μL of Cell Titer Glo (Promega) was added to each well. Plates were incubated for a minimum of 10 minutes, and bioluminescence was determined using a FLUOstar OPTIMA plate reader (BMG LABTECH). Raw bioluminescence values were normalized to DMSO control treated cells, and values were plotted in GraphPad Prism. […] Drug screens were performed in technical triplicate on each plate and either duplicate or triplicate biological replicates. […] Statistical differences between groups were determined by ANOVA as described in the figure legends.

EGFR G719A/R776C = target: T16, EGFR G719A/R776C (Homo sapiens, UniProt P00533, G719A/R776C); settings: Ba/F3 cells, EGFR G719A/R776C (PACC), Mut/WT
T16 construct: expressed in transfected cells; host or cells: Ba/F3

EGFR G724S T790M = target: T17, EGFR G724S T790M (Homo sapiens, UniProt P00533, G724S/T790M); settings: T790M-like-3R, 72 hours
T17 construct: expressed in transfected cells; host or cells: Ba/F3

EGFR Ex19del L718V = target: T18, EGFR Ex19del L718V (Homo sapiens, UniProt P00533, DEL746-750/L718V); settings: Ba/F3 cells, EGFR Ex19del L718V (PACC), Mut/WT
T18 construct: expressed in transfected cells; host or cells: Ba/F3
Experimental: as §1, §2, §3

EGFR S768I = target: T19, EGFR S768I (Homo sapiens, UniProt P00533, S768I); settings: Ba/F3 cells, EGFR S768I (PACC), Mut/WT
T19 construct: expressed in transfected cells; host or cells: Ba/F3
Experimental: as §1, §2, §7

EGFR L718Q = target: T20, EGFR L718Q (Homo sapiens, UniProt P00533, L718Q); settings: Ba/F3 cells, EGFR L718Q (PACC), Mut/WT
T20 construct: expressed in transfected cells; host or cells: Ba/F3
Experimental: as §1, §2, §3

EGFR R776H = target: T21, EGFR R776H (Homo sapiens, UniProt P00533, R776H); settings: Ba/F3 cells, EGFR R776H (PACC), Mut/WT
T21 construct: host or cells: Ba/F3

EGFR L858R G724S = target: T22, EGFR L858R G724S (Homo sapiens, UniProt P00533, G724S/L858R); settings: Ba/F3 cells, EGFR L858R G724S (PACC), Mut/WT
T22 construct: expressed in transfected cells; host or cells: Ba/F3 (retroviral transduction, pBabe-Puro based vectors)

EGFR R776C = target: T23, EGFR R776C (Homo sapiens, UniProt P00533, R776C); settings: Ba/F3 cells, EGFR R776C (PACC), Mut/WT
T23 construct: host or cells: Ba/F3
Experimental: as §1, §2, §3

EGFR L858R T790M V843I = target: T24, EGFR L858R T790M V843I (Homo sapiens, UniProt P00533, L858R/T790M/V843I); settings: T790M-like-3S, 72 hours
T24 construct: expressed in transfected cells; host or cells: Ba/F3
Experimental: as §6, §2, §3

EGFR Ex19del/L792H = target: T25, EGFR Ex19del/L792H (Homo sapiens, UniProt P00533, DEL746-750/L792H); settings: Ba/F3 cells, EGFR Ex19del/L792H (PACC), Mut/WT
T25 construct: expressed in transfected cells; host or cells: Ba/F3

ratio of IC50 for cells with mutant EGFR to IC50 for cells with wildtype EGFR (Mut/WT) (EGFR S768dupSVD V769M): 0.5446
ratio of IC50 for cells with mutant EGFR to IC50 for cells with wildtype EGFR (Mut/WT) (EGFR K754E): 0.1738
ratio of the IC50 value for cells with a PACC EGFR mutation to the IC50 value for cells with wildtype EGFR (EGFR Ex19del/C797S): 43.27
ratio of the IC50 value for cells with a PACC EGFR mutation to the IC50 value for cells with wildtype EGFR (EGFR S768I/V769L): 0.04994
ratio of the IC50 value for cells with a PACC EGFR mutation to the IC50 value for cells with wildtype EGFR (EGFR V769L): 3.454
ratio of IC50 for cells with mutant EGFR to IC50 for cells with wildtype EGFR (Mut/WT) (EGFR L858R/T790M/C797S): 134.7
ratio of IC50 for cells with mutant EGFR to IC50 for cells with wildtype EGFR (Mut/WT) (EGFR L833V): 0.1367
ratio of IC50 for cells with mutant EGFR to IC50 for cells with wildtype EGFR (Mut/WT) (EGFR E709K L858R): 0.008356
ratio of IC50 for cells with mutant EGFR to IC50 for cells with wildtype EGFR (Mut/WT) (EGFR L718Q T790M): 43.09
ratio of IC50 for cells with mutant EGFR to IC50 for cells with wildtype EGFR (Mut/WT) (EGFR L861R): 0.3102
ratio of the IC50 value for cells with a PACC EGFR mutation to the IC50 value for cells with wildtype EGFR (EGFR I740dupIPVAK): 7.185
ratio of IC50 for cells with mutant EGFR to IC50 for cells with wildtype EGFR (Mut/WT) (EGFR S768I/T790M): 10.82
ratio of IC50 for cells with mutant EGFR to IC50 for cells with wildtype EGFR (Mut/WT) (EGFR L861Q): 0.8467
ratio of IC50 for cells with mutant EGFR to IC50 for cells with wildtype EGFR (Mut/WT) (EGFR L858R T790M L718V): 5.796
ratio of the IC50 value for cells with a PACC EGFR mutation to the IC50 value for cells with wildtype EGFR (EGFR G724S): 108.6
ratio of the IC50 value for cells with a PACC EGFR mutation to the IC50 value for cells with wildtype EGFR (EGFR L747P): 5.991
ratio of the IC50 value for cells with a PACC EGFR mutation to the IC50 value for cells with wildtype EGFR (EGFR G719A/R776C): 0.8144
ratio of IC50 for cells with mutant EGFR to IC50 for cells with wildtype EGFR (Mut/WT) (EGFR G724S T790M): 48.31
ratio of the IC50 value for cells with a PACC EGFR mutation to the IC50 value for cells with wildtype EGFR (EGFR Ex19del L718V): 1.296
ratio of the IC50 value for cells with a PACC EGFR mutation to the IC50 value for cells with wildtype EGFR (EGFR S768I): 0.7766
ratio of the IC50 value for cells with a PACC EGFR mutation to the IC50 value for cells with wildtype EGFR (EGFR L718Q): 16.38
ratio of the IC50 value for cells with a PACC EGFR mutation to the IC50 value for cells with wildtype EGFR (EGFR R776H): 2.853
ratio of the IC50 value for cells with a PACC EGFR mutation to the IC50 value for cells with wildtype EGFR (EGFR L858R G724S): 0.01089
ratio of the IC50 value for cells with a PACC EGFR mutation to the IC50 value for cells with wildtype EGFR (EGFR R776C): 0.04235
ratio of IC50 for cells with mutant EGFR to IC50 for cells with wildtype EGFR (Mut/WT) (EGFR L858R T790M V843I): 1.649
ratio of the IC50 value for cells with a PACC EGFR mutation to the IC50 value for cells with wildtype EGFR (EGFR Ex19del/L792H): 6.547
SMILES: C=CC(=O)Nc1cc(Nc2ncc(C(=O)OC(C)C)c(-c3cn(C)c4ccccc34)n2)c(OC)cc1N(C)CCN(C)C [TAK-788 (mobocertinib), mobocertinib]

— patent US20240384350A1, “METHODS OF TREATING CANCER WITH KINASE INHIBITORS” (BOARD OF REGENTS, THE UNIVERSITY OF TEXAS SYSTEM, priority 2021, published 2024)
